According to patent EP4516912A1, “HERBICIDE RESISTANT PLANTS” (Eberhard-Karls-Universität Tübingen, priority 2023, dated 2025):
“Also recorded” adds a separate entry of the source.

Assays:
[1] = tested on: thale cress (Arabidopsis thaliana), rapeseed/canola (Brassica napus), barley (Hordeum vulgare), maize (Zea mays), red-root amaranth (Amaranthus retroflexus) …; assay: herbicidal effect in growth medium on model and crop plants and weeds (root growth); format: in vivo; conditions: tested in parallel
mAtDHQS1 [2] = biological target: T1, mAtDHQS1 (Arabidopsis thaliana, UniProt Q8VYV7); assay: MicroScale Thermophoresis (MST) binding and competition
T1 construct: The mature i.e. biologically relevant enzyme (mAtDHQS1) with 381 amino acids; (His)6 (C); made in house; host or cells: E. coli
T1 sequence (Q8VYV7 59-442): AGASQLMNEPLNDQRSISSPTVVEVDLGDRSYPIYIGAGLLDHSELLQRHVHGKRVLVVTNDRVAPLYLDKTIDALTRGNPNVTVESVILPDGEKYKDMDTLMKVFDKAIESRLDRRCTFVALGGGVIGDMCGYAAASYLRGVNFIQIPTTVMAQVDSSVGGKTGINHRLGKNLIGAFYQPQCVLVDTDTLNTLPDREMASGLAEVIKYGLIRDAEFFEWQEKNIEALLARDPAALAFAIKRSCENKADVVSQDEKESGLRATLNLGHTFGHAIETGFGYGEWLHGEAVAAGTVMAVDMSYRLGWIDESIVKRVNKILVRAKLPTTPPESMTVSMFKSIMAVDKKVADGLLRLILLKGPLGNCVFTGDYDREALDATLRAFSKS
Procedure: (§1) (A) Schematic representation of mDHSQ1 and pDHQS1 both containing a C-terminal (His)6 tag for purification after heterologous expression of the recombinant proteins in E.coli. aa: amino acid. (B) Relative activity of mDHQS1 (left) and pDHQS1 (right) in the presence of the indicated concentrations of 7dSh. The activity in the absence of 7dSh was set to 1. […] (A) MST fluorescence spectrum of RED dye-labelled mAtDHQS1 (50 nM) in the absence of DAHP (blue line, marked as line 1) or in the presence of 500 µM DAHP (green line, marked as line 2). […] (B) MST fluorescence spectrum of RED dye-labelled mAtDHQS1 (50 nM) in the absence of 7dSh (blue line marked as line 1) or in the presence of 500 µM 7dSh (green line marked as line 2). No downward shift is detectable, showing that there is no binding. (C) MST fluorescence spectrum of RED dye-labelled mAtDHQS1 (50 nM) in the absence of 7dSh and DAHP (blue line, marked as line 1), in the presence of 250 µM DAHP (green line marked as line 2) or 250 µM DAHP and 250 µM 7dSh (red line marked as line 3). […] (A) Growth of 3-days-old wild type plants (Col-0) or two independent transgenic lines each ectopically overexpressing either EGFP-tagged AtDHQS1 (1-1, 1-2) or EGFP-tagged AtDHQS2 (2-1, 2-2) after 3 days on control plates (mock) or on plates containing 250 µM 7dSh. (B) As in (A) but the root length was quantified. n = 10 different, lower case letters mean statistically significant differences between the data sets (ANOVA test). (C) Subcellular localization of EGFP-tagged AtDHQS1 (lines 1-1 and 1-2) or EGFP-tagged AtDHQS2 (lines 2-1 and 2-2) in chloroplasts (red fluorescence) of 3-days-old transgenic Arabidopsis plants. […] (Left) relative AtDHQS1 transcript levels in the indicated transgenic Arabidopsis lines as determined by qRT-PCR using AtDHQS1 gene-specific primers. AtDHQS1 transcript levels are about ten times higher than in wild type (Col-0). (Right) relative AtDHQS2 transcript levels in the indicated transgenic Arabidopsis lines as determined by qRT-PCR using AtDHQS2 gene-specific primers. […]

mAtDHQS1 [3] = biological target: T1, mAtDHQS1; assay: enzymatic assay with purified recombinant mature AtDHQS1; format: biochemical; conditions: 100 to 1000 µM; 50 ng purified recombinant enzyme; Figure 1B
Procedure: (§2) (A) Schematic representation of mDHSQ1 and pDHQS1 both containing a C-terminal (His)6 tag for purification after heterologous expression of the recombinant proteins in E.coli. aa: amino acid. (B) Relative activity of mDHQS1 (left) and pDHQS1 (right) in the presence of the indicated concentrations of 7dSh. The activity in the absence of 7dSh was set to 1. […] (A) MST fluorescence spectrum of RED dye-labelled mAtDHQS1 (50 nM) in the absence of DAHP (blue line, marked as line 1) or in the presence of 500 µM DAHP (green line, marked as line 2). […] (B) MST fluorescence spectrum of RED dye-labelled mAtDHQS1 (50 nM) in the absence of 7dSh (blue line marked as line 1) or in the presence of 500 µM 7dSh (green line marked as line 2). […] (C) MST fluorescence spectrum of RED dye-labelled mAtDHQS1 (50 nM) in the absence of 7dSh and DAHP (blue line, marked as line 1), in the presence of 250 µM DAHP (green line marked as line 2) or 250 µM DAHP and 250 µM 7dSh (red line marked as line 3). […] (B) As in (A) but the root length was quantified. n = 10 different, lower case letters mean statistically significant differences between the data sets (ANOVA test). (C) Subcellular localization of EGFP-tagged AtDHQS1 (lines 1-1 and 1-2) or EGFP-tagged AtDHQS2 (lines 2-1 and 2-2) in chloroplasts (red fluorescence) of 3-days-old transgenic Arabidopsis plants. […]

pAtDHQS1 = biological target: T2, pAtDHQS1 (Arabidopsis thaliana, UniProt Q8VYV7); assay: enzymatic assay with purified recombinant AtDHQS1 still containing the transit peptide; format: biochemical; conditions: 100 to 1000 µM; 50 ng purified recombinant enzyme; Figure 1B
T2 construct: a version that still has the 61 amino acid long transit peptide for plastid import (pAtDHQS1); (His)6 (C); made in house; host or cells: E. coli
T2 sequence (Q8VYV7 59-442): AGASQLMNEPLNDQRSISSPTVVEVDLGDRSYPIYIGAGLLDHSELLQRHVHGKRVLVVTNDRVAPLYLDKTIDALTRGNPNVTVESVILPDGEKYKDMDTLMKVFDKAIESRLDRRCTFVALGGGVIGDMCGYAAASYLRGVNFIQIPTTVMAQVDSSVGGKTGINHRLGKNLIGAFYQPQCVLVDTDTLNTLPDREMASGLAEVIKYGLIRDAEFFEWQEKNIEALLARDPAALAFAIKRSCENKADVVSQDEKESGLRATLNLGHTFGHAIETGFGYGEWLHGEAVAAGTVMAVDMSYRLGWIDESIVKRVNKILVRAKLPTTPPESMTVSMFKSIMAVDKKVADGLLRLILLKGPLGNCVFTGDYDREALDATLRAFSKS
Procedure: as §2

[4] = tested on: Arabidopsis wild type seedlings or transgenic lines overexpressing AtDHQS1-GFP or AtDHQS2-GFP; assay: comparative root growth experiments on growth medium; format: in vivo, Arabidopsis thaliana; conditions: 250 µM
Procedure: as §1

[5] = tested on: Arabidopsis thaliana, Brassica napus and Hordeum vulgare seedlings; assay: sedoheptulose accumulation in seedling extracts after exposure; format: in vivo; conditions: extracts after exposure of seedlings of the three species
From the text: The finding that AtDHQS1 is not the target of 7dSh, but that the overexpression of AtDHQS1 (-GFP) causes partial tolerance to 7dSh in Arabidopsis seems contradictory, and is in stark contrast to the findings of the prior art. Without being bound to theory, overexpression of AtDHQS1 could lead to a metabolic imbalance in the plant, and thereby could indirectly influence the amount, constitution, intracellular localization, biochemical and physiological activity of counteracting enzymes or proteins, one of which potentially being the true target for 7dSh. This hypothesis is in agreement with a recent finding that a strong accumulation of sedoheptulose was detectable in the extracts after exposure of Arabidopsis thaliana, Brassica napus and Hordeum vulgare seedlings to 7dSh. The accumulation was up to 60 times higher than in the untreated seedlings of the three species. Sedoheptulose is a ketoheptose - a monosaccharide with seven carbon atoms and a ketone functional group and one of the few heptoses found in nature. Sedoheptulose is not a metabolite of the shikimate pathway and can in no way serve as substrate for AtDHQS1.

[6] = substrate: O=C(O)C(=O)C[C@@H](O)[C@H](O)[C@H](O)COP(=O)(O)O; assay: enzymatic assay with purified recombinant mature AtDHQS1; format: biochemical, Arabidopsis thaliana; conditions: other: substrate DAHP; mAtDHQS1
Procedure: as §2

[7] = substrate: O=C(O)C(=O)C[C@@H](O)[C@H](O)[C@H](O)COP(=O)(O)O; assay: enzymatic assay with purified recombinant AtDHQS1 still containing the transit peptide; format: biochemical, Arabidopsis thaliana; conditions: other: substrate DAHP; pAtDHQS1
Procedure: as §2

[8] = 3-days-old seedlings, two independent lines

**Q.** Which “effective concentrations compared with 7dSh” value [1] does the source give for `O=C(O)CNCP(=O)(O)O` [glyphosate] here?
**A.** The value was “comparable”.

**Q.** How did the Kd (mAtDHQS1 [2]) turn out when `O=C(O)C(=O)C[C@@H](O)[C@H](O)[C@H](O)COP(=O)(O)O` [DAHP, 3-deoxy-D-arabino-heptulosonate-7-phosphate, reference compound] was run?
**A.** Its Kd is 33 µM.

**Q.** Which “effect on the activity of mAtDHQS1” value (mAtDHQS1 [3]) does the source give for `C[C@@H](O)[C@@H](O)[C@@H](O)[C@H](O)C(=O)CO` [7dSh, 7-deoxy-sedoheptulose] here?
**A.** Its value is “not inhibited; also recorded: no effect”.

**Q.** And the “effect on the activity of pAtDHQS1” value (pAtDHQS1)?
**A.** The value was “not inhibited; also recorded: no effect”.

**Q.** And the “competition with DAHP for binding to mAtDHQS1 (MST)” value (mAtDHQS1 [2]; RED dye-labelled mAtDHQS1 (50 nM), 250 µM DAHP and 250 µM 7dSh, Fig. 2 C)?
**A.** Its value is “no competition; also recorded: not able to displace DAHP”.

**Q.** What about the “binding to mAtDHQS1 (MST)” value (mAtDHQS1 [2]; RED dye-labelled mAtDHQS1 (50 nM), 500 µM ligand, Fig. 2 A/B) of the same molecule?
**A.** Its value is “no binding; also recorded: no interaction”.

**Q.** What about the “root growth of wild type seedlings” value ([4]; 3-days-old Arabidopsis wild type (Col-0) seedlings, 3 days) of the same molecule?
**A.** Its value is “completely inhibited”.

**Q.** And the “tolerance of seedlings of AtDHQS2-GFP transgenic lines” value [4, 8]?
**A.** Its value is “no tolerance”.

**Q.** And the “tolerance of seedlings of transgenic lines overexpressing AtDHQS1-GFP” value [4, 8]?
**A.** The value was “partial but not complete tolerance”.

**Q.** What about the accumulation of sedoheptulose [5] of the same molecule?
**A.** The accumulation of sedoheptulose was “up to 60 times higher than in the untreated seedlings”.

B1: mAtDHQS1 (Arabidopsis thaliana) (protein)
chain: AGASQLMNEPLNDQRSISSPTVVEVDLGDRSYPIYIGAGLLDHSELLQRHVHGKRVLVVTNDRVAPLYLDKTIDALTRGNPNVTVESVILPDGEKYKDMDTLMKVFDKAIESRLDRRCTFVALGGGVIGDMCGYAAASYLRGVNFIQIPTTVMAQVDSSVGGKTGINHRLGKNLIGAFYQPQCVLVDTDTLNTLPDREMASGLAEVIKYGLIRDAEFFEWQEKNIEALLARDPAALAFAIKRSCENKADVVSQDEKESGLRATLNLGHTFGHAIETGFGYGEWLHGEAVAAGTVMAVDMSYRLGWIDESIVKRVNKILVRAKLPTTPPESMTVSMFKSIMAVDKKVADGLLRLILLKGPLGNCVFTGDYDREALDATLRAFSKS
notes: The mature i.e. biologically relevant enzyme (mAtDHQS1) with 381 amino acids; (His)6 (C); made in house; host or cells: E. coli
**Q.** Which Km [6] does the source give for B1 here?
**A.** Its Km is 8.3 µM.

B2: pAtDHQS1 (Arabidopsis thaliana) (protein)
chain: AGASQLMNEPLNDQRSISSPTVVEVDLGDRSYPIYIGAGLLDHSELLQRHVHGKRVLVVTNDRVAPLYLDKTIDALTRGNPNVTVESVILPDGEKYKDMDTLMKVFDKAIESRLDRRCTFVALGGGVIGDMCGYAAASYLRGVNFIQIPTTVMAQVDSSVGGKTGINHRLGKNLIGAFYQPQCVLVDTDTLNTLPDREMASGLAEVIKYGLIRDAEFFEWQEKNIEALLARDPAALAFAIKRSCENKADVVSQDEKESGLRATLNLGHTFGHAIETGFGYGEWLHGEAVAAGTVMAVDMSYRLGWIDESIVKRVNKILVRAKLPTTPPESMTVSMFKSIMAVDKKVADGLLRLILLKGPLGNCVFTGDYDREALDATLRAFSKS
notes: a version that still has the 61 amino acid long transit peptide for plastid import (pAtDHQS1); (His)6 (C); made in house; host or cells: E. coli
**Q.** With B2 as the molecule, how does the Km [7] read?
**A.** Its Km is 2.9 µM.
